Patent publication US20070292888A1, “Methods for Measuring Enzyme Activities in Cells, Blood, Tumors and Tissues” (GEN-PATH PHARMACEUTICALS, INC., priority 2004, published 2007)

Target: T1, alpha-ketoglutarate dehydrogenase (kGDH) (Mus musculus, UniProt Q60597)
T1 construct: from tissue; host or cells: mouse brain, blood, tumor and other organs (crude lysates)
T1 sequence (Q60597 41-1023): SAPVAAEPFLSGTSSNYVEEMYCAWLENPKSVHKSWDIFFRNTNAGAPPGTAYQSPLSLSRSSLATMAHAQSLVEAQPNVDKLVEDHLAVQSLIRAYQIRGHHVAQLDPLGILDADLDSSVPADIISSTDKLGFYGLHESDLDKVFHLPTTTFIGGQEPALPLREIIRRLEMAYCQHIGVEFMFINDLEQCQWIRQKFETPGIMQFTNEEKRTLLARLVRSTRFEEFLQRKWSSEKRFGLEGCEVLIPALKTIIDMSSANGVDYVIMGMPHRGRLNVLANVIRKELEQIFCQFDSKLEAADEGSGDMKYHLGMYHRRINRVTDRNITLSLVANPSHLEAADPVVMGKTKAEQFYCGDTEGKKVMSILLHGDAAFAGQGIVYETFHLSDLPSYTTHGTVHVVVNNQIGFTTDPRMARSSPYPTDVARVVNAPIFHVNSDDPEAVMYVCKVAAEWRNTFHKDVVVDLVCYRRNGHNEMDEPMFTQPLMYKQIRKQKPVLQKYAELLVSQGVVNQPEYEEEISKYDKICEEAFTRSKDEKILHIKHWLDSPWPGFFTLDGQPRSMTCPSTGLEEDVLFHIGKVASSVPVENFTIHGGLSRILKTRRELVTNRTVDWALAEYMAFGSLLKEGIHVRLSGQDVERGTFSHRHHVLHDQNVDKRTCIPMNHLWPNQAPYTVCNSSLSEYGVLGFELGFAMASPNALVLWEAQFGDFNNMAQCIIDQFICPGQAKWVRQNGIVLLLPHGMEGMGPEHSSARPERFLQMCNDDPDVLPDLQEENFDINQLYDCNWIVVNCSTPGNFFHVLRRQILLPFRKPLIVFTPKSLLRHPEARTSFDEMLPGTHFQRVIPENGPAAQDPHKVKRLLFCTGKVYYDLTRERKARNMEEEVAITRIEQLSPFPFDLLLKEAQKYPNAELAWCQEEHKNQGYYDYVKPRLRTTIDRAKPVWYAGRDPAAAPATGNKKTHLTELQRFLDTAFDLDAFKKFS
T1 sequence (Q9D2G2 69-454 partner): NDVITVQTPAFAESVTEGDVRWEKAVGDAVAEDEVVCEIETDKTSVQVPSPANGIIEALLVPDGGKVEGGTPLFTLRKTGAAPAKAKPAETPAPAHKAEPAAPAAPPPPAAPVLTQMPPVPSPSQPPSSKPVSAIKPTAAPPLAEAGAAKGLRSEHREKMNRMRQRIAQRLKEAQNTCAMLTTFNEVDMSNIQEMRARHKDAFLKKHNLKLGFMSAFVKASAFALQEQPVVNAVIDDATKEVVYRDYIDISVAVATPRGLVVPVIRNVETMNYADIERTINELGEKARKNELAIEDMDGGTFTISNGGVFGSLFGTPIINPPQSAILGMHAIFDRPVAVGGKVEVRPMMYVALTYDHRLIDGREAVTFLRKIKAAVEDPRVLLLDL
T1 sequence (O08749 36-509 partner): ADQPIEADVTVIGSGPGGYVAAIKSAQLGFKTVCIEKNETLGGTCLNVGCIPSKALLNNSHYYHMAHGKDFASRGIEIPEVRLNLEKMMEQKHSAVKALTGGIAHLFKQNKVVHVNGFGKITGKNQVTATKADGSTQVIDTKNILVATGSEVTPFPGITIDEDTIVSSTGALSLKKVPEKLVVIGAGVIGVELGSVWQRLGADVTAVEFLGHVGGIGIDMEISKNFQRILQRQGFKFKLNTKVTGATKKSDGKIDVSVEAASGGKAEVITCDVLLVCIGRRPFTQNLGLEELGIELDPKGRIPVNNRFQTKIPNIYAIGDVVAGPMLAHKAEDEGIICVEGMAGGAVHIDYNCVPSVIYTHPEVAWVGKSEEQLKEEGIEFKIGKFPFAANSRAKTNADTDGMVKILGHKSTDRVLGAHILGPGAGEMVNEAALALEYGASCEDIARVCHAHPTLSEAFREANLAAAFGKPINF
Experiment: alpha-ketoglutarate dehydrogenase activity in tissues of treated mice (fluorescence NADH assay)
Assay type: in vivo
Method: Blood samples from mice were taken (40 μl whole blood) serially or from mice sacrificed at the end of the experiment. Tissues, such as tumors (e.g. from implantation, xenograft, or arising spontaneously), brain, heart, kidney, liver, lung and spleen were taken and flash frozen in liquid nitrogen or on dry ice and stored in −80° C. until time of assay. Four volumes of cold lysis buffer (20 mM HEPES, pH 7.5, 1 mM EDTA, 0.2 g/l Triton X-100® and 0.2 g/L sodium deoxycholate, supplemented with 1 mM DTT and 1 mM PMSF just before use) were added to the blood, which was dissolved by vortexing. For blood that was frozen before coagulation, a clear lysate was obtained. If coagulation occurred, homogenization was used as described below for tissue. Tissues were suspended in lysis buffer in 10 ml round bottom tubes and homogenized with PowerGen 125® (Fisher Scientific) for four seconds at highest power while submerged in an ice-water bath. This step was repeated after a few seconds, as necessary. […]
Each reaction was monitored for the appearance of NADH (for transketolase, alpha-ketoglutarate dehydrogenase, pyruvate dehydrogenase) or NADPH (for glucose-6-phosphate dehydrogenase) at room temperature in a fluorescent plate reader with excitation at 340 nm and emission at 470 nm in kinetic mode. The velocity was determined by the slope of the initial linear range of increasing fluorescence, expressed in fluorescent units (FU)/min. The protein concentration in the lysate was determined using Bradford assays (BioRad) with BSA as a standard. […]
To investigate the amount of in vivo enzyme inhibition following treatment with an inhibitor, we administered a single dose of N3PT (100 mg/kg, intraperitoneally [i.p.]) and blood, spleen and brain samples were collected at various times from 0-120 hours after dosing. The enzymatic activities were determined as described in Example 1. TK activity was measured in blood and spleen. Because TK activity in the brain is below the detection limit of the assay, kGDH activity was measured in brain samples. […]

Cc1ccc(C[n+]2csc(CCO)c2C)c(N)n1 [N3PT, 3-[(2-amino-6-methyl-3-pyridinyl)methyl]-5-(2-hydroxyethyl)-4-methyl thiazolium]
kGDH activity in blood (11 days i.p. twice per day, blood): obliterated
brain penetration (after a single dose 100 mg/kg i.p., inferred from brain kGDH activity): little or no significant brain penetration
inhibition of brain kGDH activity (single dose 100 mg/kg i.p., 0-120 hours): No significant inhibition
